Laboratory results taken from paper PMC8949187, “Study of Structure–Activity Relationships of the Marine Alkaloid Fascaplysin and Its Derivatives as Potent Anticancer Agents” (Marine Drugs, 2022).

Tests used:
PC-3 cells = experiment: MTT assay, PC-3 cells; assay type: cell-based, human; settings: Homo sapiens, PC-3; prostate cancer cells; 48 h of treatment; mean ± SD
Procedure: (§1) The human prostate cancer cell lines PC-3, DU145, 22Rv1 and LNCaP, as well as human prostate non-cancer cell line PNT2 were purchased from ATCC (Manassas, VA, USA). HEK 293T (human embryonic kidney cells) and MRC-9 (human fibroblast cells) cell lines were purchased from ECACC (Salisbury, UK). […] Authentication of all cell lines used was recently performed by a commercial service (Multiplexion GmbH, Heidelberg, Germany).
(§2) Cells were cultured as monolayers at 37 °C in a humidified atmosphere with 5% (v/v) CO2 in the correspondent culture medium: 10% FBS/RPMI medium (RPMI medium supplemented with Glutamax^TM-I (gibco® Life technologies^TM, Paisley, UK) containing 10% fetal bovine serum (FBS, gibco® Life technologies^TM) and 1% penicillin/streptomycin (Invitrogen)) for PNT2, LNCaP, 22Rv1, PC-3 and DU145 and cells; 10% FBS/DMEM medium (DMEM medium supplemented with Glutamax^TM-I (gibco® Life technologies^TM) containing 10% FBS and 1% penicillin/streptomycin (gibco® Life technologies^TM)) for MRC-9 and HEK 293 cells. Cells were continuously kept in culture for a maximum of 3 months, and were regularly checked for stable phenotype and mycoplasma infection.
(§3) Effect of the drugs on cell viability in terms of metabolic activity was assessed by MTT assay, as previously reported. Cells were pre-incubated overnight in 96-well plates (6 × 10^3 cells/well in 100 μL/well) in the correspondent culture media. Then, the medium was replaced with fresh 10% FBS/RPMI medium containing the investigated compounds (100 μL/well), and cells were incubated for 48 h, unless otherwise stated. Next, 10 μL/well of (3-(4,5-dimethylthiazol-2-yl)-2,5-diphenyltetrazolium bromide) reagent (MTT, 5 mg/mL) was added. After 2–4 h of incubation, the media was aspirated and the plates were dried. Then, 50 μL/well of DMSO was added to each well and the cell viability was measured using an Infinite F200PRO reader (TECAN, Männedorf, Switzerland). Results were calculated using the GraphPad Prism software v.9.1.1 (GraphPad Software, San Diego, CA, USA) and are represented as IC50 of the compounds calculated using the cells treated with the solvent alone as a control.

22Rv1 cells [1] = experiment: MTT assay, 22Rv1 cells; assay type: cell-based, human; settings: Homo sapiens, 22Rv1; prostate cancer cells; 48 h of treatment; mean ± SD
Procedure: as §1, §2, §3

DU145 cells = experiment: MTT assay, DU145 cells; assay type: cell-based, human; settings: Homo sapiens, DU-145; prostate cancer cells; 48 h of treatment; mean ± SD
Procedure: as §1, §2, §3

LNCaP cells = experiment: MTT assay, LNCaP cells; assay type: cell-based, human; settings: Homo sapiens, LNCaP; prostate cancer cells; 48 h of treatment; mean ± SD
Procedure: as §1, §2, §3

PNT2 cells = experiment: MTT assay, PNT2 cells; assay type: cell-based, human; settings: Homo sapiens, PNT2; non-cancer cells; 48 h of treatment; mean ± SD
Procedure: as §1, §2, §3

MRC-9 cells = experiment: MTT assay, MRC-9 cells; assay type: cell-based, human; settings: Homo sapiens, MRC9; non-cancer cells; 48 h of treatment; mean ± SD
Procedure: as §1, §2, §3

HEK-293 cells = experiment: MTT assay, HEK-293 cells; assay type: cell-based, human; settings: Homo sapiens, HEK293; non-cancer cells; 48 h of treatment; mean ± SD
Procedure: as §1, §2, §3

22Rv1 cells [2] = experiment: Trypan blue-based viability assay; assay type: cell-based, human; settings: Homo sapiens, 48 h of treatment, mean ± SD, read-out: IC50, trypan blue staining assay
Procedure: The effect of the drugs on cell viability in terms of cellular membrane integrity was evaluated by the trypan blue exclusion assay as described before. In brief, cells (0.2 × 10^6 cells/well) were seeded in 6-well plates and incubated overnight, and the media was replaced with fresh media (1 mL/well) containing drugs at indicated concentrations. After treatment for 48 h, the cells were harvested by trypsinization, stained with trypan blue and the viability was measured using an automatic Beckman Coulter Vi-CELL (Beckman Coulter, Krefeld, Germany). Trypan blue-positive cells were assumed to have damaged cellular membrane (i.e., dead), whereas trypan blue-negative cells were considered to have an intact cellular membrane (i.e., alive).

22Rv1 cells [3] = experiment: DNA fragmentation (apoptosis, sub-G1), flow cytometry with PI staining; assay type: cell-based, human; settings: treated at IC50 (MTT assay) for 48 h, mean ± SD
Procedure: The effects on cell cycle progression and DNA fragmentation were analyzed by flow cytometry using PI staining, as described before. Cells (2 × 10^5 cells/well) were pre-incubated overnight in 6-well plates and then treated with the investigated drugs in fresh culture media (2 mL/well) for 48 h. Cells were harvested by trypsinization, fixed in 70% EtOH, stained with PI solution and analyzed by FACS Calibur (BD Bioscience, San Jose, CA, USA). The results were quantified using BD Bioscience Cell Quest Pro v.5.2.1. software (BD Bioscience). The cells appearing as a sub-G1 population (containing fragmented DNA) were considered to be apoptotic.

[4] = test system: double-stranded calf thymus DNA; experiment: Thiazole orange displacement (DNA intercalation) assay; assay type: binding; settings: 1 µM calf thymus DNA base pairs, 2 µM thiazole orange; 7 min at room temperature; mean ± SD
Procedure: DNA intercalation activity of the compounds was calculated as an ability to displace thiazole orange (TO) from the double-stranded DNA. For this experiment, a mixture (100 µL) containing 1 µM of double-stranded calf thymus DNA (recalculated as a concentration of base pairs) and 2 µM of thiazole orange (TO) solved in water was prepared. Then, the investigated compounds were added up to final concentrations of 0.39–25 µM; DMSO concentration in the samples was <0.02%. Propidium iodide (PI, positive control) was added up to final concentrations of 0.039–2.5 uM. After 7 min of incubation at room temperature, TO fluorescence was monitored using a multimodal plate reader TECAN Spark (Tecan Group Ltd., Männedorf Switzerland) at the excitation λ = 480 nm; fluorescence was recorded at λ = 530 nm. The bandwidth was 10 nm. The concentration of the drug that caused a decrease in TO fluorescence by 50% (EC50) was determined by approximating the experimental data using a non-linear regression algorithm and calculated using the GraphPad Prism software v.9.1.1 (GraphPad Software, San Diego, CA, USA).

[5] = test system: prostate cancer cell lines (PC-3, 22Rv1, DU145 and LNCaP); experiment: MTT assay, mean over four prostate cancer cell lines; assay type: cell-based; settings: Homo sapiens; mean of MTT IC50 in PC-3, 22Rv1, DU145 and LNCaP; from Table S1 values; read-out: mean IC50 in cancer cells
Procedure: as §3, with “Next, SAR analysis was performed to identify the structural elements that are beneficial for anticancer activity of the fascaplysin-related molecules. Considering the complex and heterogeneous nature of tumors even within the same patient, we used calculated mean IC50 values of each drug in all prostate cancer cells for further analysis (Figure 2A). To identify the drug candidates with the highest therapeutic potential, the selectivity index (SI) was calculated as mean IC50 in non-cancer cells versus mean IC50 in cancer cells (Figure 2B), or as a mean IC50 in non-cancer (MRC-9 and HEK293) cells versus mean IC50 in prostate cells (cancer PC-3, 22Rv1, DU145, LNCaP and non-cancer PNT2 cells) (Figure 2C). Finally, to estimate the effects on cellular metabolism, we compared the activity evaluated by using trypan blue assay versus MTT assay (Figure 2D). Effect” for “Effect”, “2-4” for “2–4”, “F200PRO” left out

[6] = test system: non-cancer cell lines versus cancer cell lines; experiment: Selectivity index from MTT IC50s; assay type: cell-based, human; settings: MTT; for Selectivity index, IC50 (non-prostate) / IC50 (prostate): mean IC50 MRC-9 and HEK-293 versus mean IC50 prostate cancer cell lines plus PNT2; for Selectivity index, IC50 (non-cancer) / IC50 (cancer): mean IC50 non-cancer cell lines versus mean IC50 cancer cell lines
Procedure: as §3, with “Next, SAR analysis was performed to identify the structural elements that are beneficial for anticancer activity of the fascaplysin-related molecules. Considering the complex and heterogeneous nature of tumors even within the same patient, we used calculated mean IC50 values of each drug in all prostate cancer cells for further analysis (Figure 2A). To identify the drug candidates with the highest therapeutic potential, the selectivity index (SI) was calculated as mean IC50 in non-cancer cells versus mean IC50 in cancer cells (Figure 2B), or as a mean IC50 in non-cancer (MRC-9 and HEK293) cells versus mean IC50 in prostate cells (cancer PC-3, 22Rv1, DU145, LNCaP and non-cancer PNT2 cells) (Figure 2C). Finally, to estimate the effects on cellular metabolism, we compared the activity evaluated by using trypan blue assay versus MTT assay (Figure 2D). Effect” for “Effect”, “2-4” for “2–4”, “F200PRO” left out

| SMILES | IC50 (PC-3 cells) [nM] | IC50 (22Rv1 cells [1]) [nM] | IC50 (DU145 cells) [nM] | IC50 (LNCaP cells) [nM] | IC50 (22Rv1 cells [2]) [nM] | % of sub-G1 apoptotic cells (at IC50) (22Rv1 cells [3]) [%] | EC50 [4] [nM] | IC50 [5] [nM] | IC50 (PNT2 cells) [nM] | IC50 (MRC-9 cells) [nM] | IC50 (HEK-293 cells) [nM] | Selectivity index, IC50 (non-prostate) / IC50 (prostate) [6] | Selectivity index, IC50 (non-cancer) / IC50 (cancer) [6] |
| --- | --- | --- | --- | --- | --- | --- | --- | --- | --- | --- | --- | --- | --- |
| O=C1c2ccccc2-[n+]2cc(-c3ccccc3)c3c([nH]c4ccccc43)c21.[Cl-] [Compound 16, 12,13-dihydro-7-phenyl-13-oxopyrido[1,2-a:3,4-b’]diindol-5-ium chloride] | 391 ± 84 | 185 ± 39 | 491 ± 68 | 141 ± 58 | 172 ± 74 | 7±1.4 | 1160 ± 20 | 300 | 434 ± 21 | 596 ± 110 | 538 ± 69 | 1.73 | 1.73 |
| Cc1cc2c([nH]c3ccccc32)c2[n+]1-c1ccccc1C2=O.[Cl-] [Compound 19, 12,13-dihydro-6-methyl-13-oxopyrido[1,2-a:3,4-b’]diindol-5-ium chloride] | 2670 ± 140 | 1590 ± 514 | 2240 ± 890 | 2240 ± 810 | 2030 ± 609 | 14.2±0.567 | 380 ± 20 | 2180 | 3250 ± 795 | 2980 ± 930 | 1820 ± 387 | 1.00 | 1.23 |
| CCc1c[n+]2c(c3[nH]c4ccccc4c13)C(=O)c1ccccc1-2.[Cl-] [Compound 17, 12,13-dihydro-7-ethyl-13-oxopyrido[1,2-a:3,4-b’]diindol-5-ium chloride] | 564 ± 98 | 271 ± 46 | 2370 ± 450 | 611 ± 47 | 375 ± 90 | 13.4±0.92 | 1030 ± 30 | 950 | 490 ± 90 | 1450 ± 645 | 700 ± 211 | 1.25 | 0.92 |
| CC[N+](C)(CC)CCC[n+]1c(-c2ccccc2)c2cc(N)ccc2c2ccc(N)cc21 [PI, propidium iodide, reference compound] | – | – | – | – | – | – | 4 ± 0.5 | – | – | – | – | – | – |

Further lines, with some results ahead:

| IC50 (PC-3 cells) [nM] | IC50 (22Rv1 cells [1]) [nM] | IC50 (DU145 cells) [nM] | IC50 (LNCaP cells) [nM] | IC50 (22Rv1 cells [2]) [nM] | % of sub-G1 apoptotic cells (at IC50) (22Rv1 cells [3]) [%] | EC50 [4] [nM] | IC50 [5] [nM] | SMILES | IC50 (PNT2 cells) [nM] | IC50 (MRC-9 cells) [nM] | IC50 (HEK-293 cells) [nM] | Selectivity index, IC50 (non-prostate) / IC50 (prostate) [6] | Selectivity index, IC50 (non-cancer) / IC50 (cancer) [6] |
| --- | --- | --- | --- | --- | --- | --- | --- | --- | --- | --- | --- | --- | --- |
| 17800 ± 1940 | 500 ± 67 | 1270 ± 206 | 460 ± 76 | 482 ± 91 | 3.63±0.844 | 2010 ± 10 | 5010 | O=C1c2ccccc2-[n+]2ccc3c([nH]c4cc(Br)ccc43)c21 [Compound 5, 10-Bromofascaplysin] | 302 ± 90 | 20300 ± 5400 | 649 ± 78 | 2.57 | 1.41 |
| 10000 ± 6750 | 417 ± 60 | 1510 ± 130 | 1250 ± 380 | 240 ± 41 | 23.3±9.19 | 700 ± 30 | 3300 | O=C1c2ccc(Br)cc2-[n+]2ccc3c([nH]c4ccccc43)c21 [Compound 3, 3-bromofascaplysin] | 727 ± 60 | 2300 ± 870 | 1010 ± 71 | 0.59 | 0.41 |
